We go through two compounds from EP1658776A1, “Method for producing live food water organisms in the presence of an antibacterial” (priority 2004, dated 2006).

Assay [1] relates to Vibrio sp. Description: Vibrio reduction by silver combined with berberine during hatching (Example 4, Figure 2). The class given is cell-based. The settings on record: berberine 0.1 mg/l to 2.5 mg/l added together with silver 0.1 mg Ag per liter. As for the experimental part:
GSL-cysts were incubated at 2g cysts /l, following standard procedures, i.e.: salinity of 25 g/l, temperature of 30°C. Continuous illumination and air bubbling was provided. Silver nitrate, thiosulphate and berberine were added in different concentrations to the hatching medium. After 24 hours, the hatching percentage was calculated and samples of the hatching medium were taken for determination of Vibrio sp. on TCBS.

Another assay relates to gram-positive bacteria. As to conditions: against gram-positive bacteria; cited from earlier work.
The test system of assay [2] is marine heterotrophic bacterial population. As to the kind of experiment: Total bacterial count on Marine agar in hatching medium (Example 1). The class given is cell-based. As to conditions: after 24 hours; summary of Table 1. As for the experimental part: (§1) 1000 g commercially available dry cysts from Great Salt Lake (GSL-strain) were sprayed with 20 ml solution to which 2.43g or 2.02g AgNO3 is added and another 1000 g cysts were sprayed with 20 ml to which 14.20g or 11.81g thiosulphate (Na2S2O3.5(H2O)) is added (in a ratio of 4 mol thiosulphate to 1 mol AgNO3) to obtain respectively 1.50 or 1.25 mg Ag/l in the hatching medium, after incubation of 2g treated cysts therein. The cysts were gently mixed for 15-30 minutes while spraying. Both fractions were mixed together in a ratio of (1:1). The cysts were vacuum packed and stored at different temperatures (4°C, 20°C and 30°C). Cysts from the same batch were kept as a control. After 4 weeks they were incubated at 2g (treated) cysts /l, following standard procedures, i.e.: salinity of 25 g/I, temperature of 30°C. Continuous illumination and air bubbling was provided. After 24 hours of incubation, samples of the hatching medium were taken for determination of the total count on Marine agar (MA) and Vibrio sp. on TCBS (specific growth medium for Vibrio sp.). The hatching percentage (percentage of cysts that hatch on the total of full cysts) of the cysts was calculated. Tabel 1: Hatching percentage (HP) of cysts, number of colony forming units (cfu) per ml of hatching medium on MA and on TCBS after 24h incubation of Artemia cysts of control cysts and cysts with different amounts of AgNO3 (expressed as mg Ag/l hatching medium). Each value is the average of three counts.

The subject of assay [3] is Vibrio sp. As to the kind of experiment: Vibrio count on TCBS in hatching medium (Example 1). The settings on record: after 24 hours; summary of Table 1. The class given is cell-based. As for the experimental part: as §1

Regarding `COc1ccc2cc3[n+](cc2c1OC)CCc1cc2c(cc1-3)OCO2` [berberine, reference compound], the “reduction in Vibrio species” value in the assay with Vibrio sp. [1] is reported as “some reduction in Vibrio species is observed”. Besides, in the assay on gram-positive bacteria, the inhibitory activity was 50 to 400 mg/L.
Take “silver thiosulphate [silver nitrate and thiosulphate]”: the “total counts on Marine Agar” value in assay [2] is on record as “not affected”. The “TCBS (Vibrio sp.) in the medium with treated cysts” value in the assay on Vibrio sp. [3] is below 300 cfu/ml.
